# Measurements published in PMC5870887 (Bioorganic & medicinal chemistry letters, 2018).
# Molecular target: recombinant α-synuclein fibrils (Homo sapiens, UniProt P37840)
# Assay: Thioflavin T competitive binding fluorescence assay
# Conditions: Thioflavin T assay Ki, mean ± SD, at least three experiments, NB = no binding was measurable (concentrations up to 10 μM)
row,Compound,Ki
1,"COc1ccc2nc(/C=C/c3ccccc3)ccc2c1 [Compound 2, (E)-6-Methoxy-2-styrylquinoline]",0.192 ± 0.001 µM
2,"COc1ccc2ccc(/C=C/c3ccccc3)nc2c1 [Compound 3, (E)-7-methoxy-2-styrylquinoline]",0.68 ± 0.139 µM
3,"COc1cc(-c2nc(-c3ccc4cc(OCCF)ccc4n3)no2)ccn1 [Compound 28, 3-(6-(2-Fluoroethoxy)quinolin-2-yl)-5-(2-methoxypyridin-4-yl)-1,2,4-oxadiazole]",0.015 ± 0.003 µM

# Same assay, conditions: mean ± SD, at least three experiments, NB = no binding was measurable (concentrations up to 10 μM)
row,Compound,Thioflavin T assay Ki
1,"COc1cccc2nc(/C=C/c3ccccc3)ccc12 [Compound 1, (E)-5-Methoxy-2-styrylquinoline]",no binding
2,"COc1cccc2ccc(/C=C/c3ccccc3)nc12 [Compound 4, (E)-8-Methoxy-2-styrylquinoline]",no binding
3,"COc1ccc2nc(/C=C/c3ccnc(F)c3)ccc2c1 [Compound 11, (E)-2-(2-(2-Fluoropyridin-4-yl)vinyl)-6-methoxyquinoline]",no binding
4,"COc1ccc2nc(/C=C/c3ccncc3Cl)ccc2c1 [Compound 15, (E)-2-(2-(3-Chloropyridin-4-yl)vinyl)-6-methoxyquinoline]",no binding
5,"COc1ccc2nc(/C=C/c3ccncc3Br)ccc2c1 [Compound 16, (E)-2-(2-(3-Bromopyridin-4-yl)vinyl)-6-methoxyquinoline]",moderate binding

# Same assay, conditions: read-out: Thioflavin T assay Ki, mean ± SD, at least three experiments, NB = no binding was measurable (concentrations up to 10 μM)
row,Compound,Ki
1,"COc1cccc2nc(/C=C/c3ccccc3)ccc12 [Compound 1, (E)-5-Methoxy-2-styrylquinoline]",> 10 µM
2,"COc1cccc2ccc(/C=C/c3ccccc3)nc12 [Compound 4, (E)-8-Methoxy-2-styrylquinoline]",> 10 µM
3,"COc1cc2ccccc2nc1/C=C/c1ccncc1 [Compound 5, (E)-3-Methoxy-2-(2-(pyridin-4-yl)vinyl)quinolone]",> 10 µM
4,"COc1cc(/C=C/c2ccncc2)nc2ccccc12 [Compound 6, (E)-4-Methoxy-2-(2-(pyridin-4-yl)vinyl)quinolone]",> 10 µM
5,"COc1cccc2nc(/C=C/c3ccncc3)ccc12 [Compound 7, (E)-5-Methoxy-2-(2-(pyridin-4-yl)vinyl)quinolone]",0.056 ± 0.04 µM
6,"COc1ccc2nc(/C=C/c3ccncc3)ccc2c1 [Compound 8, (E)-6-Methoxy-2-(2-(pyridin-4-yl)vinyl)quinolone]",0.052 ± 0.038 µM
7,"COc1ccc2ccc(/C=C/c3ccncc3)nc2c1 [Compound 9, (E)-7-Methoxy-2-(2-(pyridin-4-yl)vinyl)quinolone]",> 10 µM
8,"COc1cccc2ccc(/C=C/c3ccncc3)nc12 [Compound 10, (E)-8-Methoxy-2-(2-(pyridin-4-yl)vinyl)quinolone]",> 10 µM
9,"COc1ccc2nc(/C=C/c3ccnc(F)c3)ccc2c1 [Compound 11, (E)-2-(2-(2-Fluoropyridin-4-yl)vinyl)-6-methoxyquinoline]",> 10 µM
10,"COc1ccc2nc(/C=C/c3ccnc(OC)c3)ccc2c1 [Compound 13, (E)-6-Methoxy-2-(2-(2-methoxypyridin-4-yl)vinyl)quinolone]",0.052 ± 0.021 µM
11,"COc1cc(/C=C/c2ccc3cc(OCCF)ccc3n2)ccn1 [Compound 14, (E)-6-(2-Fluoroethoxy)-2-(2-(2-methoxypyridin-4-yl)vinyl)quinolone]",0.018 ± 0.001 µM
12,"COc1ccc2nc(/C=C/c3ccncc3Cl)ccc2c1 [Compound 15, (E)-2-(2-(3-Chloropyridin-4-yl)vinyl)-6-methoxyquinoline]",> 10 µM
13,"COc1ccc2nc(-c3noc(-c4cccnc4)n3)ccc2c1 [Compound 26, 3-(6-Methoxyquinolin-2-yl)-5-(pyridin-3-yl)-1,2,4-oxadiazole]",> 10 µM
14,"COCOc1ccc2nc(-c3noc(-c4ccnc(OC)c4)n3)ccc2c1 [Compound 29, 3-(6-(Methoxymethoxy)quinolin-2-yl)-5-(2-methoxypyridin-4-yl)-1,2,4-oxadiazole]",> 10 µM
15,"COc1cc(-c2nc(-c3ccc4cc(OC(C)C)ccc4n3)no2)ccn1 [Compound 30, 3-(6-Isopropoxyquinolin-2-yl)-5-(2-methoxypyridin-4-yl)-1,2,4-oxadiazole]",> 10 µM
16,"COc1ccc2nc(-c3noc(-c4ccn5ccnc5c4)n3)ccc2c1 [Compound 31, 5-(Imidazo[1,2-a]pyridin-7-yl)-3-(6-methoxyquinolin-2-yl)-1,2,4-oxadiazole]",> 10 µM
17,"CC(C)Oc1ccc2nc(-c3noc(-c4ccn5ccnc5c4)n3)ccc2c1 [Compound 32, 5-(Imidazo[1,2-a]pyridin-7-yl)-3-(6-isopropoxyquinolin-2-yl)-1,2,4-oxadiazole]",> 10 µM
18,"FCCOc1ccc2nc(-c3noc(-c4ccn5ccnc5c4)n3)ccc2c1 [Compound 33, 3-(6-(2-Fluoroethoxy)quinolin-2-yl)-5-(imidazo[1,2-a]pyridin-7-yl)-1,2,4-oxadiazole]",> 10 µM
19,"COCOc1ccc2nc(-c3noc(-c4ccn5ccnc5c4)n3)ccc2c1 [Compound 34, 5-(Imidazo[1,2-a]pyridin-7-yl)-3-(6-(methoxymethoxy)-quinolin-2-yl)-1,2,4-oxadiazole]",> 10 µM
